According to US20130085133A1, “ANTI-VIRAL TREATMENT AND ASSAY TO SCREENFOR ANTI-VIRAL AGENT” (Sourthern Research Institute Office of Commercialization …, priority 2010, published 2013):

What was measured:
[1] = test system: respiratory syncytial virus (RSV) strain Long; test: microbe, parasite or virus in culture; settings: human respiratory syncytial virus, HEp-2, 144 h
[2] = cytotoxicity assay (percent viability of HEp-2 cells, Cell Titer-Glo); settings: human, HEp-2 cells

SMILES	EC50 [1]	CC50 at 6 days [2]
Oc1ccc(O)cc1 [AB00053361]	47.9 µM	> 50 µM
Cc1ccc(-c2nc3cc(N)ccc3o2)cc1Br [AB00076694]	16.4 µg/mL	> 25 µg/mL
NC(=O)c1ccccc1NC(=O)CSc1nc2ccccc2o1 [AB00132114]	20.7 µg/mL	> 25 µg/mL
Cn1cnnc1SCC(=O)N1c2ccccc2Sc2ccc(C(F)(F)F)cc21 [AB00139215]	10.9 µg/mL	> 25 µg/mL
O=c1[nH]c(=O)n(Cc2ccc([N+](=O)[O-])cc2)cc1F [AB00173190]	21 µM	> 50 µM
Cc1ccc(C)n1-c1ccc(C(=O)O)cc1 [AB00275199]	13 µg/mL	> 25 µg/mL
Oc1cccc2ccc(N3CCOCC3)nc12 [AB00275625]	15.2 µg/mL	> 25 µg/mL
O=C(c1ccc(O)cc1O)c1ccc(O)cc1O [AB00275918]	20.5 µg/mL	> 25 µg/mL
Cc1cnc(NC(=O)c2ccc(Cl)cc2Cl)s1 [AB00276221]	17.6 µg/mL	> 25 µg/mL
O=C(N1CCCC1)N1c2ccccc2CCc2ccccc21 [AB00276381]	12.2 µg/mL	> 25 µg/mL
O=C(Nc1cccc(C(F)(F)F)c1)c1ccccc1Cl [AB00276634]	15.8 µg/mL	> 25 µg/mL
O=c1[nH]cnc2sc3c(c12)CCCCC3 [AB00276706]	19.6 µg/mL	> 25 µg/mL
Cc1ccc2c(ccc3nc(C)ccc32)n1 [AB00278348]	12.6 µg/mL	> 25 µg/mL
CC(=O)CCc1c(C)nc2ccc(Br)cc2c1S [AB00279343]	20.7 µg/mL	> 25 µg/mL
CC(=O)CCc1c(O)nc2ccccc2c1C [AB00279389]	14.2 µg/mL	> 25 µg/mL
Cc1nc(N)sc1-c1csc(Nc2ccccn2)n1 [AB00280085]	18.9 µg/mL	> 25 µg/mL
O=C(Nc1ccc(Nc2ccccc2)cc1)c1ccccc1F [AB00282102]	12 µg/mL	> 25 µg/mL

SMILES	EC50 [1]	CC50 at 6 days [2]
CCOC(=O)c1ccc(NC(=O)CN(c2ccccc2Br)S(C)(=O)=O)cc1 [AB00282821]	14.5 µg/mL	> 25 µg/mL
O=c1cnnc(N/N=C/c2ccccc2Br)[nH]1 [AB00283422]	15.8 µg/mL	> 25 µg/mL
Cc1cc(C)cc(OCC(O)CNC(C)c2ccccc2)c1 (centres unmarked) [AB00283699]	12.9 µg/mL	> 25 µg/mL
Cc1ccccc1C(=O)Nc1sc2c(c1C(=O)N1CCN(Cc3ccccc3)CC1)CCCCC2 [AB00284323]	17.5 µg/mL	> 25 µg/mL
Cc1ccc2nc(SCCC#N)nc(C)c2c1 [AB00284847]	22.5 µg/mL	> 25 µg/mL
O=C(O)c1ccc(-c2cccc(Cl)c2Cl)o1 [AB00287600]	12.7 µg/mL	> 25 µg/mL
COc1ccc(-c2cn3cccnc3n2)cc1 [AB00288908]	21.6 µg/mL	–
CCOc1ccccc1OCCOCCOc1cccc2cccnc12 [AB00289145]	24.2 µg/mL	> 25 µg/mL
COc1ccccc1OCC(=O)Nc1ccc(Br)cc1C(=O)O [AB00290004]	23.2 µg/mL	> 25 µg/mL
CNC(=O)Nc1ccccc1C(=O)Nc1ccc(C)cc1 [AB00290142]	19.4 µg/mL	> 25 µg/mL
CCCCSc1nc(=O)c(C(c2ccccc2)c2ccccc2)c(O)[nH]1 [AB00291408]	24.2 µg/mL	> 25 µg/mL
CCOc1ccc(NC(=O)CSC2=C(C#N)C(c3ccncc3)C(C(=O)Nc3ccccc3)=C(C)N2)cc1 (centres unmarked) [AB00292155]	15.7 µg/mL	> 25 µg/mL
COc1cc(-c2nnc(SCc3cc(Cl)cc(Cl)c3)o2)cc(OC)c1OC [AB00292171]	7.64 µg/mL	> 25 µg/mL
COc1ccc(NC(=O)CN2c3cccc4cccc(c34)S2(=O)=O)c(OC)c1 [AB00293237]	10.3 µg/mL	> 25 µg/mL
CC(=O)c1ccc2c3c(ccc(O)c13)CC2 [AB00293238]	11.4 µg/mL	> 25 µg/mL
Cc1cc(C)cc(NC(=O)c2cccc(NC(=O)c3ccco3)c2)c1 [AB00293678]	18.6 µg/mL	> 25 µg/mL
